From the SangsterLogP compilation

assay: method code SF-HPLC, from DOI: 10.1021/ac9902291

Point of comparison: `c1cc2ccc3cccc4sc(c1)c2c34`, logP 4.95. Against it:
- c1ccc2c(c1)ccc1ccsc12 — lower, 4.55
- c1ccc2c(c1)ccc1sccc12 — lower, 4.41
- Cc1cccc2ccsc12 — lower, 3.85
- c1ccc2c(c1)ccc1c3ccsc3ccc21 — higher, 5.35
- c1ccc2cc3sccc3cc2c1 — lower, 4.5
- c1ccc2c(c1)ccc1sc3ccccc3c12 — higher, 5.19
- Cc1cccc2sccc12 — lower, 3.57
- Cc1cc2ccccc2s1 — lower, 3.71
- O=S1(=O)C=Cc2ccccc21 — lower, 1.01
- c1ccc2c(c1)sc1ccccc12 — lower, 4.36
